Test results: US20260325533A1, “CDK INHIBITOR COMPOUNDS” (ALEKSIA THERAPEUTICS, INC., priority 2023, published 2026)
Like-named read-outs stand apart in the source and are kept apart here.

Key:
Format in all cases: biochemical
[1] = biological target: CDK1/CCNB1 (Homo sapiens, UniProt P06493); assay: CDK1 homogeneous time-resolved fluorescence (HTRF) kinase assay; conditions: CDK1/CCNB
In short: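 0.5 nM CDK1/CCNB1 was preincubated 20 min at 23 °C with compound in HEPES pH-unspecified buffer (MgCl2, EGTA, DTT, Tween 20), then reacted 60 min with 1 mM ATP and 50 nM ULight-4E-BP1 (Thr37/46) peptide. EDTA-stopped reactions were detected with 2 nM Eu-anti-phospho antibody; IC50 from 11-point half-log titrations.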

[2] = biological target: CDK6/CCND1 (Homo sapiens, UniProt Q00534); assay: CDK6 homogeneous time-resolved fluorescence (HTRF) kinase assay; conditions: CDK6/CCND, 1 mM ATP
In short: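 1 nM enzyme, 1 mM ATP, 50 nM ULight-4E-BP1 (Thr37/46) peptide, 1% DMSO; 20 min compound preincubation, 60 min reaction, 23 °C. EDTA stop, 2 nM Eu-anti-phospho-4E-BP1 antibody 60 min. TR-FRET 665 nm (or 665/615 ratio); IC50 from 11-point half-log titration, top 10 μM.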

[3] = biological target: CDK2/CCNE1 (Homo sapiens, UniProt P24941); assay: CDK2 homogeneous time-resolved fluorescence (HTRF) kinase assay; conditions: CDK2/CCNE
In short: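 3 nM CDK2/CCNE1 was preincubated with compound for 20 min at 23 °C in HEPES buffer (pH not stated), then reacted 60 min with 1 mM ATP and 50 nM ULight-4E-BP1 (Thr37/46) peptide. After EDTA stop, Eu-anti-phospho-4E-BP1 antibody (2 nM) was added for 60 min and TR-FRET read at 665 nm.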

[4] = biological target: CDK4/CCND3 (Homo sapiens, UniProt P11802); assay: CDK4 homogeneous time-resolved fluorescence (HTRF) kinase assay; conditions: >250 nM; CDK4/CCND; read-out: CDK4/CCND IC50, >250 nM
In short: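 Inhibition of CDK4/CCND3 (1.5 nM) was measured at high ATP (1 mM) using 50 nM ULight-labelled 4E-BP1 Thr37/46 peptide; detection used 2 nM europium anti-phospho antibody after EDTA quench. IC50 values came from 11-point half-log titrations typically starting at 10 μM.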

[5] = >250 nM, read-out: CDK1/CCNB IC50 >250 nM
[6] = >250 nM, read-out: CDK6/CCND IC50, >250 nM
[7] = 25-250 nM, read-out: CDK2/CCNE IC50, 25-250 nM
[8] = <25 nM, read-out: CDK2/CCNE IC50, <25 nM

Sequence of CDK1/CCNB1 (P06493 whole entry): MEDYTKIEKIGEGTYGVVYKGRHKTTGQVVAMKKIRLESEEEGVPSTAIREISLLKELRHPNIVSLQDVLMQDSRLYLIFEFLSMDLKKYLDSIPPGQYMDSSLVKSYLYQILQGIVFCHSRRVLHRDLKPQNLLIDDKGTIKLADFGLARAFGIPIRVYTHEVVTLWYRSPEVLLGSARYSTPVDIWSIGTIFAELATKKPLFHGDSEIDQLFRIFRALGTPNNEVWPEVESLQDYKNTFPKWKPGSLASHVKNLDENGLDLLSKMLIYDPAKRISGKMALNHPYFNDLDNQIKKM
Sequence of CDK1/CCNB1 (P14635 whole entry partner): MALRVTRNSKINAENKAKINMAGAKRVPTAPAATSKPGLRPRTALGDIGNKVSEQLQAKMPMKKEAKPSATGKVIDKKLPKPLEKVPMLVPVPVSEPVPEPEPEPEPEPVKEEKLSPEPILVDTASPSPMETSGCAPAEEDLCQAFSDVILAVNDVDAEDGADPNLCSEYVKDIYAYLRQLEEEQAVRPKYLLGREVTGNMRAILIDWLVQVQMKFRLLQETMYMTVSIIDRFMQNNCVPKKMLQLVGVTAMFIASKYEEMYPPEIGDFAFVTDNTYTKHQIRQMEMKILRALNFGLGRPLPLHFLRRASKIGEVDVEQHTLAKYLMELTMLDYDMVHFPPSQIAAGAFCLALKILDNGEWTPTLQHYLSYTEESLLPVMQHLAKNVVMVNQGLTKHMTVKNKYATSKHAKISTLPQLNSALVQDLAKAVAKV
Sequence of CDK6/CCND1 (Q00534 whole entry): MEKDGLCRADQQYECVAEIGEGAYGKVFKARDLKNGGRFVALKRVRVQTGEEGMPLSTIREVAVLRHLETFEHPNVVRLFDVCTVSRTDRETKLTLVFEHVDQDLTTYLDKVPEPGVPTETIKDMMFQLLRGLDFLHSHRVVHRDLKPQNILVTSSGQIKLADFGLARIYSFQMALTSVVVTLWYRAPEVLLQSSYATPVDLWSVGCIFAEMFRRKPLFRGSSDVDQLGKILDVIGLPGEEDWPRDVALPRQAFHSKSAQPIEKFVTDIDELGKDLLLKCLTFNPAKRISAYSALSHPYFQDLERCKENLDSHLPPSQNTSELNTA
Sequence of CDK6/CCND1 (P24385 whole entry partner): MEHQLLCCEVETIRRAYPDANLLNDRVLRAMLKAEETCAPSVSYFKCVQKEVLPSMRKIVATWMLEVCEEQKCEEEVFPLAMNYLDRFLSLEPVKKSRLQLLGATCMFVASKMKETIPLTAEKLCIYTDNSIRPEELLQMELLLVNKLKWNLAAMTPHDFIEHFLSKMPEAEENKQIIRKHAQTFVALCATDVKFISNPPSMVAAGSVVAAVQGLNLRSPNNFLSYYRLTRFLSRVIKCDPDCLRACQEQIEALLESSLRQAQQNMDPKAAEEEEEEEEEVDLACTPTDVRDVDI
Sequence of CDK4/CCND3 (P11802 whole entry): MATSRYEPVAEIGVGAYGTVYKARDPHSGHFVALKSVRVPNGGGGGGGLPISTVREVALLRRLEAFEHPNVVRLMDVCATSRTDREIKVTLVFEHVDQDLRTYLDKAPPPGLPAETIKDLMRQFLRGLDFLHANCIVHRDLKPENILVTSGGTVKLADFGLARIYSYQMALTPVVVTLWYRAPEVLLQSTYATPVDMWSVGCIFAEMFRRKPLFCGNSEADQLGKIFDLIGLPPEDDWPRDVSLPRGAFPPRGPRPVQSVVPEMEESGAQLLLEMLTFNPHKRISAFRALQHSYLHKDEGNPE
Sequence of CDK4/CCND3 (P30281 whole entry partner): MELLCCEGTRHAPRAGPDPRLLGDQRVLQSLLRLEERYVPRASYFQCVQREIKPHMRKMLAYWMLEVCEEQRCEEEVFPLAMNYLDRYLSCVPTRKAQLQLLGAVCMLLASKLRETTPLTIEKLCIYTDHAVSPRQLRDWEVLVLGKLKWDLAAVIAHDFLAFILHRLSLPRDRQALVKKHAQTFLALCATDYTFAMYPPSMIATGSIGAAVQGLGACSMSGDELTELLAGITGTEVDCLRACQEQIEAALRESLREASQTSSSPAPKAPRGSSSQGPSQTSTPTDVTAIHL

Compound	IC50 [1, 5] [nM]	IC50 [2, 6] [nM]	IC50 [3, 7] [nM]	IC50 [4] [nM]	IC50 [3, 8] [nM]	IC50 ([3]; >250 nM, read-out: CDK2/CCNE IC50, >250 nM) [nM]	IC50 ([1]; 25-250 nM, read-out: CDK1/CCNB IC50, 25-250 nM) [nM]	IC50 ([2]; 25-250 nM, read-out: CDK6/CCND IC50, 25-250 nM) [nM]
COc1ccc(NS(=O)(=O)c2ccc(Nc3cc4c(-c5ccc6c(cnn6CC(O)(C(F)(F)F)C(F)(F)F)c5C)nccc4cn3)cc2)cc1C(C)(C)O [Ex 709, N-(3-(2-hydroxypropan-2-yl)-4-methoxyphenyl)-4-((5-(4-methyl-1-(3,3,3-trifluoro-2-hydroxy-2-(trifluoromethyl)propyl)-1H-indazol-5-yl)-2,6-naphthyridin-3-yl)amino)benzenesulfonamide]	> 250	> 250	25 to 250	> 250				
Cc1c(-c2nccc3cnc(Nc4ccc(S(=O)(=O)Nc5cc(C(C)(C)O)ccn5)cc4)cc23)ccc2c1cnn2CC(O)(C(F)(F)F)C(F)(F)F [Ex 710, N-(4-(2-hydroxypropan-2-yl)pyridin-2-yl)-4-((5-(4-methyl-1-(3,3,3-trifluoro-2-hydroxy-2-(trifluoromethyl)propyl)-1H-indazol-5-yl)-2,6-naphthyridin-3-yl)amino)benzenesulfonamide]	> 250	> 250		> 250	< 25			
Cc1c(-c2nccc3cnc(Nc4ccc(S(=O)(=O)Nc5cccc(C(C)(C)O)n5)cc4)cc23)ccc2c1cnn2CC(O)(C(F)(F)F)C(F)(F)F [Ex 711, N-(6-(2-hydroxypropan-2-yl)pyridin-2-yl)-4-((5-(4-methyl-1-(3,3,3-trifluoro-2-hydroxy-2-(trifluoromethyl)propyl)-1H-indazol-5-yl)-2,6-naphthyridin-3-yl)amino)benzenesulfonamide]	> 250	> 250		> 250	< 25			
Cc1c(-c2nccc3cnc(Nc4ccc(S(=O)(=O)Nc5cccc(C(C)(C)O)c5)cc4)cc23)ccc2c1cnn2CC(O)(C(F)(F)F)C(F)(F)F [Ex 712, N-(3-(2-hydroxypropan-2-yl)phenyl)-4-((5-(4-methyl-1-(3,3,3-trifluoro-2-hydroxy-2-(trifluoromethyl)propyl)-1H-indazol-5-yl)-2,6-naphthyridin-3-yl)amino)benzenesulfonamide]	> 250	> 250	25 to 250	> 250				
Cc1c(-c2nccc3cnc(Nc4ccc(S(=O)(=O)Nc5ccccc5N5CCOCC5)cc4)cc23)ccc2c1cnn2CC(O)(C(F)(F)F)C(F)(F)F [Ex 713, 4-((5-(4-methyl-1-(3,3,3-trifluoro-2-hydroxy-2-(trifluoromethyl)propyl)-1H-indazol-5-yl)-2,6-naphthyridin-3-yl)amino)-N-(2-morpholinophenyl)benzenesulfonamide]	> 250	> 250	25 to 250	> 250				
COc1ccccc1NS(=O)(=O)c1ccc(Nc2cc3c(-c4ccc5c(cnn5CC(O)(C(F)(F)F)C(F)(F)F)c4C)nccc3cn2)cc1 [Ex 714, N-(2-methoxyphenyl)-4-((5-(4-methyl-1-(3,3,3-trifluoro-2-hydroxy-2-(trifluoromethyl)propyl)-1H-indazol-5-yl)-2,6-naphthyridin-3-yl)amino)benzenesulfonamide]	> 250	> 250	25 to 250	> 250				
Cc1ccccc1NS(=O)(=O)c1ccc(Nc2cc3c(-c4ccc5c(cnn5CC(O)(C(F)(F)F)C(F)(F)F)c4C)nccc3cn2)cc1 [Ex 715, 4-((5-(4-methyl-1-(3,3,3-trifluoro-2-hydroxy-2-(trifluoromethyl)propyl)-1H-indazol-5-yl)-2,6-naphthyridin-3-yl)amino)-N-(o-tolyl)benzenesulfonamide]	> 250	> 250		> 250		> 250		
COc1cccc(NS(=O)(=O)c2ccc(Nc3cc4c(-c5ccc6c(cnn6CC(O)(C(F)(F)F)C(F)(F)F)c5C)nccc4cn3)cc2)c1 [Ex 717, N-(3-methoxyphenyl)-4-((5-(4-methyl-1-(3,3,3-trifluoro-2-hydroxy-2-(trifluoromethyl)propyl)-1H-indazol-5-yl)-2,6-naphthyridin-3-yl)amino)benzenesulfonamide]	> 250	> 250	25 to 250	> 250				
COc1ccc(NS(=O)(=O)c2ccc(Nc3cc4c(-c5ccc6c(cnn6CC(O)(C(F)(F)F)C(F)(F)F)c5C)nccc4cn3)cc2)cc1 [Ex 718, N-(4-methoxyphenyl)-4-((5-(4-methyl-1-(3,3,3-trifluoro-2-hydroxy-2-(trifluoromethyl)propyl)-1H-indazol-5-yl)-2,6-naphthyridin-3-yl)amino)benzenesulfonamide]	> 250	> 250	25 to 250	> 250				
COc1ccc(NS(=O)(=O)c2ccc(Nc3cc4c(-c5ccc6c(cnn6CC(O)(C(F)(F)F)C(F)(F)F)c5C)nccc4cn3)cc2)nc1 [Ex 719, N-(5-methoxypyridin-2-yl)-4-((5-(4-methyl-1-(3,3,3-trifluoro-2-hydroxy-2-(trifluoromethyl)propyl)-1H-indazol-5-yl)-2,6-naphthyridin-3-yl)amino)benzenesulfonamide]	> 250	> 250	25 to 250	> 250				
Cc1c(-c2nccc3cnc(Nc4ccc(S(=O)(=O)Nc5cccc(C(F)(F)F)n5)cc4)cc23)ccc2c1cnn2CC(O)(C(F)(F)F)C(F)(F)F [Ex 720, 4-((5-(4-methyl-1-(3,3,3-trifluoro-2-hydroxy-2-(trifluoromethyl)propyl)-1H-indazol-5-yl)-2,6-naphthyridin-3-yl)amino)-N-(6-(trifluoromethyl)pyridin-2-yl)benzenesulfonamide]	> 250	> 250	25 to 250	> 250				
CC[C@H](C)NS(=O)(=O)c1ccc(Nc2cc3c(-c4ccc5c(cnn5CC(C)(C)O)c4C)nccc3cn2)cc1 [Ex 722, (S)-N-(sec-butyl)-4-((5-(1-(2-hydroxy-2-methylpropyl)-4-methyl-1H-indazol-5-yl)-2,6-naphthyridin-3-yl)amino)benzenesulfonamide]	> 250	> 250		> 250	< 25			
Cc1c(-c2nccc3cnc(Nc4ccc(S(N)(=O)=O)cc4)cc23)ccc2c1cnn2CC(O)(C(F)(F)F)C(F)(F)F [Ex 726, 4-((5-(4-methyl-1-(3,3,3-trifluoro-2-hydroxy-2-(trifluoromethyl)propyl)-1H-indazol-5-yl)-2,6-naphthyridin-3-yl)amino)benzenesulfonamide]				> 250	< 25		25 to 250	25 to 250
Cc1c(-c2nccc3cnc(Nc4ccc(S(=O)(=O)Nc5ncccn5)cc4)cc23)ccc2c1cnn2CC(O)(C(F)(F)F)C(F)(F)F [Ex 727, 4-((5-(4-methyl-1-(3,3,3-trifluoro-2-hydroxy-2-(trifluoromethyl)propyl)-1H-indazol-5-yl)-2,6-naphthyridin-3-yl)amino)-N-(pyrimidin-2-yl)benzenesulfonamide]	> 250	> 250		> 250	< 25			
Cc1c(-c2nccc3cnc(Nc4ccc(S(=O)(=O)Nc5ccccc5)cc4)cc23)ccc2c1cnn2CC(O)(C(F)(F)F)C(F)(F)F [Ex 728, 4-((5-(4-methyl-1-(3,3,3-trifluoro-2-hydroxy-2-(trifluoromethyl)propyl)-1H-indazol-5-yl)-2,6-naphthyridin-3-yl)amino)-N-phenylbenzenesulfonamide]	> 250	> 250	25 to 250	> 250				
Cc1c(-c2nccc3cnc(Nc4ccc(S(=O)(=O)NCc5ccccc5)cc4)cc23)ccc2c1cnn2CC(O)(C(F)(F)F)C(F)(F)F [Ex 729, N-benzyl-4-((5-(4-methyl-1-(3,3,3-trifluoro-2-hydroxy-2-(trifluoromethyl)propyl)-1H-indazol-5-yl)-2,6-naphthyridin-3-yl)amino)benzenesulfonamide]	> 250	> 250	25 to 250	> 250				
Cc1c(-c2nccc3cnc(Nc4ccc(S(=O)(=O)NCc5ccccc5)cc4)cc23)ccc2c1cnn2CC(C)(C)O [Ex 730, N-benzyl-4-((5-(1-(2-hydroxy-2-methylpropyl)-4-methyl-1H-indazol-5-yl)-2,6-naphthyridin-3-yl)amino)benzenesulfonamide]	> 250	> 250		> 250	< 25			
